The structures appear in SMILES notation. Converted amounts (≈) assume the structure as drawn. Like-named read-outs stand apart in the source and are kept apart here.

Common to all, as to format: cell-based
The test system of test [1] is Staphylococcus aureus (MSSA) ATCC10390 (strain B6). Description: MIC determination according to CLSI, Staphylococcus aureus (MSSA) ATCC10390. From the text: (§1) For example, the compounds of the present invention show antimicrobial, e.g. antibacterial, activity against gram positive bacteria, such as coagulase-positive and coagulase-negative Staphylococci, e.g. Staphylococcus aureus, Styphylococcus epidermis, Staphylococcus haemolyticus, Streptococci, e.g. Streptococcus pyogenes, Streptococcus pneumoniae, Streptococcus agalacticae, Enterococci, e.g. Enterococcus faecium and Moraxellaceae, e.g. Moraxella catarrhalis, Pasteurellaceae, e.g. Haemophilus influenzae, as well as against Mycoplasmactaceae, Chlamydiaceae, e.g. Chlamydia trachomatis, Chlamydia pneumoniae and obligatory anaerobes, e.g. Bacteroides fragilis, Clostridium difficile; in vitro in the Agar Dilution Test or Microdilution Test according to the Climical and Laboratory Standards Institute (CLSI, former National Committee for Clinical Laboratory Standards (NCCLS) 2006, Document M7-A7 Vol. 26, No. 2: “Methods for dilution Antimicrobial Susceptibility Tests for Bacteria that Grow Aerobically—Seventh Edition, Approved Standard”; and in the in vitro determination of the antibacterial activity against anaerobic bacteria according to National Committee for Clinical Laboratory Standards (NCCLS) VOL. 24, No. 2, M11-A5, Methods for Antimicrobal Susceptibility Testing of Anaerobic Bacteria; Approved Standard; Sixth Edition (2004) and in vivo in the septicaemic mouse model against Staphylococcus aureus.
(§2) The antibacterial activity expressed as minimal inhibitory concentration (MIC) was determined according to the approved standard reference recommendations of CLSI (former NCCLS).

Test [2] has as its system Staphylococcus aureus (MSSA) ATCC29213 (strain B7). Description: MIC determination according to CLSI, Staphylococcus aureus (MSSA) ATCC29213.
From the text: as §1, §2

In test [3] the test system is Enterococcus faecalis ATCC29212 (strain B4). Description: MIC determination according to CLSI, Enterococcus faecalis ATCC29212.
From the text: as §1, §2

The test system of test [4] is Enterococcus faecalis ATCC51299 (strain B5). The test can be described thus: MIC determination according to CLSI, Enterococcus faecalis ATCC51299.
From the text: as §1, §2

Test [5] has as its system Moraxella catarrhalis ATCC43618 (strain B407). The test can be described thus: MIC determination according to CLSI, Moraxella catarrhalis ATCC43618.
From the text: as §1, §2

The subject of test [6] is Escherichia coli ATCC25922 (strain B1). The test can be described thus: MIC determination according to CLSI, Escherichia coli ATCC25922.
From the text: as §1, §2

Test [7] deals with Streptococcus pneumoniae ATCC49619 (strain B11). Description: MIC determination according to CLSI, Streptococcus pneumoniae ATCC49619.
From the text: as §1, §2

Test [8] deals with Staphylococcus aureus, Enterococcus faecalis, Streptococcus pneumoniae, Moraxella catarrhalis and Escherichia coli. Description: Antibacterial activity (MIC) against the panel of clinical relevant bacterial pathogens. As to the method:
as §2

[9] abbreviates: Staphylococcus aureus (MSSA), ATCC10390, strain B6, read-out: MIC.
[10] abbreviates: Staphylococcus aureus (MSSA), ATCC29213, strain B7, read-out: MIC.
Where [11] appears, read: ATCC29212, strain B4, read-out: MIC.
The mark [12] stands for this setting: ATCC51299, strain B5, read-out: MIC.
The mark [13] stands for this setting: ATCC43618, strain B407, read-out: MIC.
Setting [14] is: ATCC25922, strain B1, read-out: MIC.
[15] abbreviates: ATCC49619, strain B11, read-out: MIC.

As for `C=C[C@]1(C)C[C@@H](OC(=O)CSc2cccc(CNC(=O)[C@H]3CCCCN3)c2)[C@]2(C)C(C)CCC3(CCC(=O)C32)[C@@H](C)[C@@H]1O` (stereo partly drawn) [Example 1, 14-O-[(3-{[((R)-Piperidine-2-carbonyl)-amino]-methyl}-phenylsulfanyl)-acetyl]-mutilin], the MIC was not above 0.0125 µg/mL in test [1] (setting [9]); not above 0.0125 µg/mL in test [2] (setting [10]); 1.6 µg/mL (≈ 2.62 µM) in test [3] (setting [11]); 1.6 µg/mL (≈ 2.62 µM) in test [4] (setting [12]); 0.0125 µg/mL (≈ 0.0205 µM) in test [5] (setting [13]); 12.8 µg/mL (≈ 21 µM) in test [6] (setting [14]). Moreover, in test [7] (setting [15]), the MIC is not above 0.0025 µg/mL. Further, in test [8] (against at least one of the strains shown in Table 1), the “factor by which MICs are lower than the MICs of examples 39-41” value was not below 2. Also, the “activity against the clinical relevant bacterial pathogens (in words)” value in test [8] (in vitro, S. aureus, E. faecalis, S. pneumoniae, M. catarrhalis, E. coli) is reported as “very good activity”.

As for `C=C[C@]1(C)C[C@@H](OC(=O)CSc2cccc(C)c2)[C@]2(C)C(C)CCC3(CCC(=O)C32)[C@@H](C)[C@@H]1O` (stereo partly drawn) [Example 39, 14-O-[(3-Methyl-phenylsulfanyl)-acetyl]-mutilin], the MIC is 0.025 µg/mL (≈ 0.0516 µM) in test [1] (setting [9]); 0.05 µg/mL (≈ 0.103 µM) in test [2] (setting [10]); more than 6.4 µg/mL in test [3] (setting [11]); more than 6.4 µg/mL in test [4] (setting [12]); 0.0125 µg/mL (≈ 0.0258 µM) in test [5] (setting [13]); more than 6.4 µg/mL in test [6] (setting [14]). In addition, in test [7] (setting [15]), the MIC was determined as 0.16 µg/mL (≈ 0.33 µM).

Consider `C=C[C@]1(C)C[C@@H](OC(=O)COc2cccc(C)c2)[C@]2(C)[C@H](C)CC[C@]3(CCC(=O)[C@H]32)[C@@H](C)[C@@H]1O` [Example 40, 14-O-[(3-Methyl-phenoxy)-acetyl]-mutilin], for which the MIC in test [1] (Staphylococcus aureus) was 0.05 µg/mL (≈ 0.107 µM); in test [2] (Staphylococcus aureus), 0.05 µg/mL (≈ 0.107 µM); in test [3] (ATCC29212), more than 6.4 µg/mL; in test [4] (ATCC51299) it was more than 6.4 µg/mL; in test [5] (ATCC43618) it was 0.0125 µg/mL (≈ 0.0267 µM); in test [6] (ATCC25922), more than 6.4 µg/mL. The compound also came in with an MIC in test [7] (ATCC49619) of 0.64 µg/mL (≈ 1.37 µM).

`CC[C@]1(C)C[C@@H](OC(=O)COc2cccc(C)c2)[C@]2(C)C(C)CCC3(CCC(=O)C32)[C@@H](C)[C@@H]1O` (stereo partly drawn) [Example 41, 14-O-[(3-Methyl-phenoxy)-acetyl]-19,20-dihydromutilin]: the MIC in test [1] (Staphylococcus aureus) is 0.05 µg/mL (≈ 0.106 µM); in test [2] (Staphylococcus aureus), 0.1 µg/mL (≈ 0.212 µM); in test [3] (ATCC29212), more than 6.4 µg/mL; in test [4] (ATCC51299), more than 6.4 µg/mL; in test [5] (ATCC43618), 0.025 µg/mL (≈ 0.0531 µM); in test [6] (ATCC25922), more than 6.4 µg/mL. Moreover, in test [7] (ATCC49619), the MIC was more than 0.64 µg/mL.

Values taken from patent publication US8173685B2, “Pleuromutilin derivatives and their use as antimicrobials” (Nabriva Therapeutics AG, priority 2007, dated 2012).
